Assays:
[1] = tested on: antibodies in sera from SARS patients (sera 1a, 1b, 2, 6, 37, 62, London, SARS-yellow, SARS-green); type: binding, human; set-up: Binding of serum 6 to linear peptides of protein X1 of SARS-CoV Urbani / Binding of serum 37 to linear peptides of protein X1 of SARS-CoV Urbani / Binding of serum 6 to looped/cyclic peptide (PEPSCAN-ELISA) / Binding of serum 37 to looped/cyclic peptide (PEPSCAN-ELISA) / Binding of serum 37 to looped/cyclic peptides of protein X1 of SARS-CoV Urbani / Binding of serum 6 to linear peptides of protein X2 / Binding of serum 37 to linear peptides of protein X2 / Binding of serum 37 to looped/cyclic peptides of protein X2 of SARS-CoV Urbani / Binding of serum 6 to linear peptides of protein M of SARS-CoV Urbani / Binding of serum 37 to linear peptides of protein M of SARS-CoV Urbani / Binding of serum 6 to looped/cyclic peptides of protein M of SARS-CoV Urbani / Binding of serum 37 to looped/cyclic peptides of protein M of SARS-CoV Urbani / Binding of serum 6 to linear peptides of protein X3 of SARS-CoV Urbani / Binding of serum 37 to linear peptides of protein X3 of SARS-CoV Urbani / Binding of serum 37 to looped/cyclic peptides of protein X3 of SARS-CoV Urbani / Binding of serum 6 to linear peptides of protein X4 of SARS-CoV Urbani / Binding of serum 37 to linear peptides of protein X4 of SARS-CoV Urbani / Binding of serum 37 to looped/cyclic peptides of protein X4 of SARS-CoV Urbani / Binding of serum 6 to linear peptides of protein X5 of SARS-CoV Urbani / Binding of serum 37 to linear peptides of protein X5 of SARS-CoV Urbani / Binding of serum 37 to looped/cyclic peptides of protein X5 of SARS-CoV Urbani / Binding of serum 6 to linear peptides of protein N of SARS-CoV Urbani / Binding of serum 37 to linear peptides of protein N of SARS-CoV Urbani / Binding of serum 6 to linear peptide (PEPSCAN-ELISA) / Binding of serum 1a to looped/cyclic peptides of protein N of SARS-CoV Urbani / Binding of serum 1b to looped/cyclic peptides of protein N of SARS-CoV Urbani / Binding of serum 2 to looped/cyclic peptides of protein N of SARS-CoV Urbani / Binding of serum 6 to looped/cyclic peptides of protein N of SARS-CoV Urbani / Binding of serum 37 to looped/cyclic peptides of protein N of SARS-CoV Urbani / Binding of serum 62 to looped/cyclic peptides of protein N of SARS-CoV Urbani / Binding of serum London to looped/cyclic peptides of protein N of SARS-CoV Urbani / Binding of serum SARS-green to looped/cyclic peptides of protein N of SARS-CoV Urbani: unit not given here
[2] = tested on: control sera (pooled serum of ten healthy LUMC hospital workers; commercial negative donor pooled serum from the Dutch bloodbank); type: binding, human; set-up: Binding of Control serum LUMC to linear peptides / Binding of Control serum Blood-bank to linear peptides / Binding of Control serum LUMC to looped peptides / Binding of Control Serum Blood-Bank to Looped peptides / Binding of Control serum LUMC to linear peptides of the protein M of SARS-CoV Urbani / Binding of Control serum Blood-bank to linear peptides of the protein M of SARS-CoV Urbani / Binding of Control serum LUMC to looped peptides of the protein M of SARS-CoV Urbani / Binding of Control Serum Blood-Bank to Looped peptides of the protein M of SARS-CoV Urbani: unit not given here
[3] = tested on: rabbit serum obtained by immunizing a rabbit with the SARS-CoV strain Frankfurt 1; type: binding; set-up: Binding of a rabbit serum to linear peptides / Binding of a rabbit serum to looped peptides / Rabbit serum linear peptides / Rabbit serum looped peptides / Binding of a rabbit serum to linear peptides of protein N of SARS-CoV Urbani (Rabbit serum linear peptides) / Binding of a rabbit serum to looped/cyclic peptides of protein N of SARS-CoV Urbani (Rabbit serum looped peptides): unit not given here
[4] = tested on: recombinant human anti-SARS-CoV antibody 03-018; type: binding; set-up: Binding of antibody 03-018 to linear peptides of the N protein of SARS-CoV Urbani / Binding of antibody 03-018 to looped/cyclic peptides of the N protein of SARS-CoV Urbani: unit not given here

Row | Sequence | Binding of serum 1a to linear peptides of protein N of SARS-CoV Urbani [1] | Binding of serum 1a to looped/cyclic peptides of protein N of SARS-CoV Urbani [1] | Binding of serum 1b to linear peptides of protein N of SARS-CoV Urbani [1] | Binding of serum 1b to looped/cyclic peptides of protein N of SARS-CoV Urbani [1] | Binding of serum 2 to linear peptides of protein N of SARS-CoV Urbani [1] | Binding of serum 2 to looped/cyclic peptides of protein N of SARS-CoV Urbani [1] | Binding of serum 6 to linear peptides of protein N of SARS-CoV Urbani [1] | Binding of serum 6 to looped/cyclic peptides of protein N of SARS-CoV Urbani [1] | Binding of serum 37 to linear peptides of protein N of SARS-CoV Urbani [1] | Binding of serum 37 to looped/cyclic peptides of protein N of SARS-CoV Urbani [1] | Binding of serum 62 to linear peptides of protein N of SARS-CoV Urbani [1] | Binding of serum 62 to looped/cyclic peptides of protein N of SARS-CoV Urbani [1] | Binding of serum London to linear peptides of protein N of SARS-CoV Urbani [1] | Binding of serum London to looped/cyclic peptides of protein N of SARS-CoV Urbani [1] | Binding of serum SARS-green to linear peptides of protein N of SARS-CoV Urbani [1] | Binding of serum SARS-green to looped/cyclic peptides of protein N of SARS-CoV Urbani [1] | Binding of serum SARS-yellow to linear peptides of protein N of SARS-CoV Urbani [1] | Binding of serum SARS-yellow to looped/cyclic peptides of protein N of SARS-CoV Urbani [1] | Binding of a rabbit serum to linear peptides of protein N of SARS-CoV Urbani (Rabbit serum linear peptides) [3] | Binding of a rabbit serum to looped/cyclic peptides of protein N of SARS-CoV Urbani (Rabbit serum looped peptides) [3] | further results
1 | LTYHGAIKLDDKDPQ | 0.2 | 0.3 | 0.1 | 0.1 | 0.2 | 0.3 | 0.2 | 0.1 | 0.6 | 0.5 | 1.0 | 0.3 | 0.5 | 0.4 | 0.2 | 0.1 | 0.7 | 0.4 | 0.1 | 0.5 | Control Serum Blood-Bank Looped peptides [2]: 0.5; Control serum Blood-bank linear peptides [2]: 0.7; Control serum LUMC linear peptides [2]: 0.6; Control serum LUMC looped peptides [2]: 0.5; Binding of antibody 03-018 to linear peptides of the N protein of SARS-CoV Urbani [4]: 0.1; Binding of antibody 03-018 to looped/cyclic peptides of the N protein of SARS-CoV Urbani [4]: 0.2
2 | MEVTPSGTWLTYHGA | 0.3 | 0.4 | 0.1 | 0.3 | 0.1 | 0.5 | 0.2 | 0.3 | 0.6 | 0.7 | 0.5 | 0.8 | 0.5 | 0.5 | 0.2 | 0.5 | 0.7 | 0.4 | 0.1 | 0.4 | Control Serum Blood-Bank Looped peptides [2]: 0.7; Control serum Blood-bank linear peptides [2]: 0.8; Control serum LUMC linear peptides [2]: 0.6; Control serum LUMC looped peptides [2]: 0.8; Binding of antibody 03-018 to linear peptides of the N protein of SARS-CoV Urbani [4]: 0.1; Binding of antibody 03-018 to looped/cyclic peptides of the N protein of SARS-CoV Urbani [4]: 0.2
3 | MKELSPRWYFYYLGT | 0.2 | 0.4 | 0.1 | 0.2 | 0.1 | 0.4 | 0.1 | 0.2 | 0.5 | 0.7 | 0.4 | 0.6 | 0.4 | 0.4 | 0.2 | 0.4 | 0.6 | 0.4 | 0.1 | 0.4 | Binding of Control Serum Blood-Bank to Looped peptides [2]: 0.7; Binding of Control serum Blood-bank to linear peptides [2]: 0.7; Binding of Control serum LUMC to linear peptides [2]: 0.6; Binding of Control serum LUMC to looped peptides [2]: 0.6; Binding of antibody 03-018 to linear peptides of the N protein of SARS-CoV Urbani [4]: 0.1; Binding of antibody 03-018 to looped/cyclic peptides of the N protein of SARS-CoV Urbani [4]: 0.2

From patent US20070128217A1 (priority 2003, published 2007)
